Experimental data reported in patent US20080152640A1, “Means and Methods For Treating a Disease Which is Associated With an Excess Transport of Hyaluronan Across a Lipid Bilayer” (priority 2003, published 2008).
Where two headings read alike, the source gives them in different places.

Assays:
[1] = tested on: hyaluronan synthase; settings: for IC50: read-out: HA synthase activity (IC50), membranes of human fibroblasts
[2] = tested on: hyaluronan transport; assay: Inhibition of hyaluronan transport (export) from human fibroblasts, discussion of Example 9; settings: for inhibition of hyaluronan transport (words): human fibroblasts
Method: Cells from five culture flasks (180 cm2 growth area) were washed with cold phosphate buffered saline (PBS), harvested with the aid of a rubber policeman, sedimented at 1500 g for 5 min and suspended in 30 ml of ice-cold PBS. The cells were transferred into a Parr-cell disruption bomb, exposed to a nitrogen pressure of 900 psi for 15 min and disrupted by nitrogen cavitation [18] and the particulate fraction was obtained by centrifugation at 40000 g for 20 min. […] Hyaluronan synthesis was stopped by adding a solution of 10% sodium dodecylsuifate (SDS) to a final concentration of 1%. The mixtures were applied to descending paper chromatography that was developed with ethanol/aq. 1 M ammonium acetate pH 5.5 (13:7) as solvent. After 18 h the radioactivity of [14C]hyaluronan at the origin was determined.
Trypsinised fibroblasts were suspended in Dulbecco's medium at 10^5 cells/ml and 100 μl aliquots were transferred to a 96 well microtiter plate. The first row received 200 μl of the suspension and 20 μl of the multidrug resistance inhibitors dissolved in DMSO at concentrations of 4 mM. A serial dilution to the inhibitors was established by transfer of 100 μl aliquots from the first row to the following rows. All experiments were performed in duplicates. […] The cells were incubated for 2 days at 37° C. and aliquots (5 and 20 μl) of the culture medium were used for measurement of the hyaluronan concentration in the cell culture medium by an ELISA [19]. […] The mixtures were transferred to the hyaluronan-coated test plate and incubated for 1 hour at 37° C. The microtiter plate was washed three times with buffer A and incubated with 100 μl/well of a solution of streptavidin-horseraddish-peroxidase (Amersham) at a dilution of 1:100 in phosphate buffered saline, 0.1% Tween-20 for 30 min at room temperature. The plate was washed five times with buffer A and the colour was developed by incubation with a 100 μl/well of a solution of 5 mg o-phenylenediamine and 5 μl 30% H2O2 in 10 ml of 0.1 M citrate-phosphate buffer pH 5.3 for 25 min at room temperature. The adsorption was read at 490 nm. The concentrations in the samples were calculated from a logarithmic regression curve of the hyaluronan standard solutions.
Three parameters were measured: 1. The amount of hyaluronan produced during growth into the culture supernatant. 2. The hyaluronan synthase activity in particulate membrane fractions to eliminate the possibility that inhibition of hyaluronan production in cell culture could be caused indirectly by cellular mediators. 3. The effect on cell proliferation, because hyaluronan synthesis is also required for detachment during mitosis and growth of the human HT1080 cell line [14].

[3] = tested on: human fibroblasts; assay: Hyaluronan production of human fibroblasts (ELISA of culture medium); format: cell-based; settings: for IC50: Fibroblast, read-out: HA production (IC50)
[4] = target: MRP transporters (Homo sapiens, UniProt P33527); settings: read-out: IC50 for MRP transporter; cited from earlier work
[5] = target: MRP1 (Homo sapiens, UniProt P33527); settings: read-out: IC50, transport of 17β-glucuronosyl-estradiol by MRP1; substrate 17β-glucuronosyl-estradiol; cited from earlier work
[6] = target: MRP5 (Homo sapiens, UniProt O15440); settings: cited from earlier work
[7] = target: MDR1 (Homo sapiens, UniProt P08183); settings: cited from earlier work
[8] = tested on: human skin fibroblasts; assay: Proliferation of human skin fibroblasts (cell counting); format: cell-based; settings: Homo sapiens, Skin fibroblast, read-out: Proliferation (IC50)
Method: Human fibroblasts were grown in […] in Dulbecco's modified Eagles medium supplemented with streptomycin/penicillin (100 units of each/ml), kanamycin (100 units/ml) and 10% foetal calf serum. Cell proliferation was determined by cell counting after trypsinisation three days after seeding.

[9] = target: T1, MRP7 (Homo sapiens, UniProt Q5T3U5); settings: cited from earlier work
T1 sequence (Q5T3U5 1-1492): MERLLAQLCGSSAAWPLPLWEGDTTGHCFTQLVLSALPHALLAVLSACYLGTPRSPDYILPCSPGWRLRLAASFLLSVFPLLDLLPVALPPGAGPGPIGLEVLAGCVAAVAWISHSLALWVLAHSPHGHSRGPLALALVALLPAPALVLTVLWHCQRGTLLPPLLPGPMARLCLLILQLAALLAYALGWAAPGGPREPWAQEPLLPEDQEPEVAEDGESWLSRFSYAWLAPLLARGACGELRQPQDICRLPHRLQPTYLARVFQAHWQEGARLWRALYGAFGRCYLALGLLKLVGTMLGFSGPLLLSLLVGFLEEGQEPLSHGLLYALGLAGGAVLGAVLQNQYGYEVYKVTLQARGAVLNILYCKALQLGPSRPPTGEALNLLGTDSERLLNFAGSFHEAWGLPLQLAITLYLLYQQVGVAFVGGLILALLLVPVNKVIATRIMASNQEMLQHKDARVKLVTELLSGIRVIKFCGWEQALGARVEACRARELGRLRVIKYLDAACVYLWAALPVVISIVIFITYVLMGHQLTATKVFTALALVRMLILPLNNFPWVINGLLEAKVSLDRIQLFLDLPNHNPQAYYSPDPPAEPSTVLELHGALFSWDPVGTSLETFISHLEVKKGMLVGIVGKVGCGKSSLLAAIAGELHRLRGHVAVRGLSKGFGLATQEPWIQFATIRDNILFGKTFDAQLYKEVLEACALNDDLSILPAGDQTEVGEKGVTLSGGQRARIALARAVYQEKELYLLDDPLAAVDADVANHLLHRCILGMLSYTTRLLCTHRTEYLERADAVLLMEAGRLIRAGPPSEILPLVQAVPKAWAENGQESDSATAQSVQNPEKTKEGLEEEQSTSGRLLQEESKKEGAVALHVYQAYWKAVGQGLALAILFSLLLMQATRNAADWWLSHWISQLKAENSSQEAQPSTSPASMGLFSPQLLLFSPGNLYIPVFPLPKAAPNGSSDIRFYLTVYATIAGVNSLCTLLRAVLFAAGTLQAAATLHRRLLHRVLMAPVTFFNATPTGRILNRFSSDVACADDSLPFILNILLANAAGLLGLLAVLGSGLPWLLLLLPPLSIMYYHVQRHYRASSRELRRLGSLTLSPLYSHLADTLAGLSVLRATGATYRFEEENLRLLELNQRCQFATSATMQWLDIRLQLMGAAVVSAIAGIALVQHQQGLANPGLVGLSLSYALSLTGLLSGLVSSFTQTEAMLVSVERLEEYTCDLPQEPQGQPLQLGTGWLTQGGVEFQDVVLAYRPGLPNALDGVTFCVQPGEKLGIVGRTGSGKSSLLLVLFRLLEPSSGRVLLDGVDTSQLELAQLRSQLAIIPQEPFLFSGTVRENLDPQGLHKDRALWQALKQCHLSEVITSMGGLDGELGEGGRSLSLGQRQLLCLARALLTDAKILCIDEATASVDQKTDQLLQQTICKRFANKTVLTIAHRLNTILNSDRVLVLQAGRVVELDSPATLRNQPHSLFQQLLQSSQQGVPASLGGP

[10] = target: MRP2 (Homo sapiens, UniProt Q92887); settings: cited from earlier work
[11] = target: T2, MRP4 (Homo sapiens, UniProt O15439); settings: read-out: IC50, MRP4 mediated export of methotrexate; substrate methotrexate; cited from earlier work
T2 sequence (O15439 1-1325): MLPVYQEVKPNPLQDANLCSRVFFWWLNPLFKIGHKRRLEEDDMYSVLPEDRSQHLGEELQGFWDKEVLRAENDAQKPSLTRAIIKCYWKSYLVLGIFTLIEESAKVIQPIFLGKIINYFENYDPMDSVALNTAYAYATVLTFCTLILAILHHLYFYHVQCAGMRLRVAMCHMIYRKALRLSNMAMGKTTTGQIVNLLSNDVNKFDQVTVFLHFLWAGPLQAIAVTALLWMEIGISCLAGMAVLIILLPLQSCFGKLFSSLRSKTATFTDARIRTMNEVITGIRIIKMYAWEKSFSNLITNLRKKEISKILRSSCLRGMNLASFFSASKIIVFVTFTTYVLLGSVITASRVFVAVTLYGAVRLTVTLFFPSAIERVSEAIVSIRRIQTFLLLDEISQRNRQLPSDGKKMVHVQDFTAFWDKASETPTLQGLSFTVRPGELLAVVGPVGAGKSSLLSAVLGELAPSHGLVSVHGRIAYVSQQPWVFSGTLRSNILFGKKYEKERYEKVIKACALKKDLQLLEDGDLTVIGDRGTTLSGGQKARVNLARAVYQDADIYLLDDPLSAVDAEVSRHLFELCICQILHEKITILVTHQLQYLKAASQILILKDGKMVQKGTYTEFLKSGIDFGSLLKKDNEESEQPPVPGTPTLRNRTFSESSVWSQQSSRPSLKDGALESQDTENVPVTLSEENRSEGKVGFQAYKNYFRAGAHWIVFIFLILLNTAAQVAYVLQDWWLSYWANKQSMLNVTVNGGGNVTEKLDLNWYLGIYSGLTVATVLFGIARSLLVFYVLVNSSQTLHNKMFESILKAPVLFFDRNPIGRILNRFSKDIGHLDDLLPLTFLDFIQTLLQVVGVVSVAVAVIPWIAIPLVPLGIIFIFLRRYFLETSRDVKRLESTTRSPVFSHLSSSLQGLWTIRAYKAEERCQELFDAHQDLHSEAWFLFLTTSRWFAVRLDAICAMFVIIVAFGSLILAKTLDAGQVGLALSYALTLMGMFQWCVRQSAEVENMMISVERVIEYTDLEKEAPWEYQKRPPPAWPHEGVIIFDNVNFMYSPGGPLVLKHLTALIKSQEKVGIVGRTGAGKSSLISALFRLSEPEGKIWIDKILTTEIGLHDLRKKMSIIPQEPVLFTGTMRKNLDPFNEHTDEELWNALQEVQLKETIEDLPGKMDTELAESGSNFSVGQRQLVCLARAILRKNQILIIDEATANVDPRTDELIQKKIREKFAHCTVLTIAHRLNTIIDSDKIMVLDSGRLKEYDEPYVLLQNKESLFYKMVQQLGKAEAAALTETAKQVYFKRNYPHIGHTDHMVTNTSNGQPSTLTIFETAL

[12] = tested on: bovine articular cartilage; assay: Proteoglycan loss from interleukin-induced osteoarthritic bovine cartilage organ culture; format: cell-based; settings: different concentrations
Text: We analyzed the efficacy of several inhibitors in organ cultures of bovine articular cartilage that was induced to become osteoarthritic by interleukin.

[13] = tested on: human fibroblasts; assay: Export of endogenously synthesized [3H]hyaluronan from human fibroblasts; format: cell-based; settings: for [3H]hyaluronan: 50 μg/ml in pinocytotic media, 40 hours
Method: (§1) This experiment was performed to investigate, whether an excess of hyaluronan oligosaccharides introduced into the cytosol interfere with the export of hyaluronan synthesized by the human fibroblasts. Fibroblasts (4×10^4 cells) were seeded into culture flasks of 25 cm^2 growth areas and incubated for 24 hours. High molecular weight hyaluronan, hyaluronan oligosaccharides, a mixture of N-acetyl-glucosamine and glucuronic acid or control buffer were introduced into the cytosol by the method of osmotic lysis of pinocytotic vesicles. The concentrations of the added components in the pinocytotic media were 50 μg/ml. The cells were incubated for 40 hours in the presence of [3H]GlcN (8 μCi/ml, specific activity 29 Ci/mmole) and the amount of radioactive hyaluronan released into the culture medium was determined as described.
as §1, with “Ci/ml,” for “μCi/ml,”, “μCi/mmole)” for “Ci/mmole)”
This experiment was performed to investigate, whether both processes could be uncoupled. Fibroblasts were labelled with [3H]GlcN and hyaluronan oligosaccharides, high molecular weight hyaluronan or an equal mixture of GlcNac and GlcA were introduced into the cytosol. [3H]hyaluronan secreted into the medium was isolated by ion exchange chromatography and the radioactivity was determined.

[14] = human fibroblasts, culture medium

MRP5, sequence (O15440 whole entry): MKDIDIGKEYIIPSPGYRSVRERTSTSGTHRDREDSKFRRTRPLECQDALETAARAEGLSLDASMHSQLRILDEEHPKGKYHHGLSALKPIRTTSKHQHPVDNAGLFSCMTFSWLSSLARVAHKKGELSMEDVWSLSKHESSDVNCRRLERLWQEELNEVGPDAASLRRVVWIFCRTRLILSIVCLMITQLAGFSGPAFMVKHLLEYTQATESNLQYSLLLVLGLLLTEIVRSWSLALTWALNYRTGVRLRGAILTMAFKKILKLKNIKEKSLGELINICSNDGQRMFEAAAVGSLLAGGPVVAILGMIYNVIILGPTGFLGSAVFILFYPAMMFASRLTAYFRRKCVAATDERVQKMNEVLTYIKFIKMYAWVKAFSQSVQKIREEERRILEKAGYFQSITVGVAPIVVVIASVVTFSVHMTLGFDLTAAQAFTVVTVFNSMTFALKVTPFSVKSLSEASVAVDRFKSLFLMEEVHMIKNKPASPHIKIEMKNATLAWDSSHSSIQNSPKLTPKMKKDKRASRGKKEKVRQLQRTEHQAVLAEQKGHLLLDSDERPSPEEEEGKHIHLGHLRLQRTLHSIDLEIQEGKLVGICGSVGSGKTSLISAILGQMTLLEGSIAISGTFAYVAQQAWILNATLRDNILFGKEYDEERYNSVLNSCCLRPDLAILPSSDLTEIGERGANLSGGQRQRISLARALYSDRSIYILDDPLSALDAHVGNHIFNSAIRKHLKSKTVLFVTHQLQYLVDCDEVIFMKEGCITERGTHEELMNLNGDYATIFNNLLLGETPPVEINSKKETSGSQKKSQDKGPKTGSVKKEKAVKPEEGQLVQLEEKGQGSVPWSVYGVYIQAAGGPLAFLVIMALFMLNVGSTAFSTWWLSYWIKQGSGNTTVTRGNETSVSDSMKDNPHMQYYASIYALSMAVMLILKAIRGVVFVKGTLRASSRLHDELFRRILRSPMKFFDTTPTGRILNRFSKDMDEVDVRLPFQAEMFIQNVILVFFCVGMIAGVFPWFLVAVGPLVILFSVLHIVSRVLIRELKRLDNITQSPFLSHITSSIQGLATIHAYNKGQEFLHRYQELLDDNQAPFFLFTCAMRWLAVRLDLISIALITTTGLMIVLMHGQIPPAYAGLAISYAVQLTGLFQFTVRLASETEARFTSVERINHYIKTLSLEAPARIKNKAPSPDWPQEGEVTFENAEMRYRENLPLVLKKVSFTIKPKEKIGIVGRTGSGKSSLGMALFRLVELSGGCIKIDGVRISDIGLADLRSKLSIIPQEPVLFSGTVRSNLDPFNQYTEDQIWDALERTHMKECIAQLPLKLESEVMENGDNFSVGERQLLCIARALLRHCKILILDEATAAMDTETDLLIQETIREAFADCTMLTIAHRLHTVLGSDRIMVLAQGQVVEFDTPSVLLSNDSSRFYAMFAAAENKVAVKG
MDR1, sequence (P08183 whole entry): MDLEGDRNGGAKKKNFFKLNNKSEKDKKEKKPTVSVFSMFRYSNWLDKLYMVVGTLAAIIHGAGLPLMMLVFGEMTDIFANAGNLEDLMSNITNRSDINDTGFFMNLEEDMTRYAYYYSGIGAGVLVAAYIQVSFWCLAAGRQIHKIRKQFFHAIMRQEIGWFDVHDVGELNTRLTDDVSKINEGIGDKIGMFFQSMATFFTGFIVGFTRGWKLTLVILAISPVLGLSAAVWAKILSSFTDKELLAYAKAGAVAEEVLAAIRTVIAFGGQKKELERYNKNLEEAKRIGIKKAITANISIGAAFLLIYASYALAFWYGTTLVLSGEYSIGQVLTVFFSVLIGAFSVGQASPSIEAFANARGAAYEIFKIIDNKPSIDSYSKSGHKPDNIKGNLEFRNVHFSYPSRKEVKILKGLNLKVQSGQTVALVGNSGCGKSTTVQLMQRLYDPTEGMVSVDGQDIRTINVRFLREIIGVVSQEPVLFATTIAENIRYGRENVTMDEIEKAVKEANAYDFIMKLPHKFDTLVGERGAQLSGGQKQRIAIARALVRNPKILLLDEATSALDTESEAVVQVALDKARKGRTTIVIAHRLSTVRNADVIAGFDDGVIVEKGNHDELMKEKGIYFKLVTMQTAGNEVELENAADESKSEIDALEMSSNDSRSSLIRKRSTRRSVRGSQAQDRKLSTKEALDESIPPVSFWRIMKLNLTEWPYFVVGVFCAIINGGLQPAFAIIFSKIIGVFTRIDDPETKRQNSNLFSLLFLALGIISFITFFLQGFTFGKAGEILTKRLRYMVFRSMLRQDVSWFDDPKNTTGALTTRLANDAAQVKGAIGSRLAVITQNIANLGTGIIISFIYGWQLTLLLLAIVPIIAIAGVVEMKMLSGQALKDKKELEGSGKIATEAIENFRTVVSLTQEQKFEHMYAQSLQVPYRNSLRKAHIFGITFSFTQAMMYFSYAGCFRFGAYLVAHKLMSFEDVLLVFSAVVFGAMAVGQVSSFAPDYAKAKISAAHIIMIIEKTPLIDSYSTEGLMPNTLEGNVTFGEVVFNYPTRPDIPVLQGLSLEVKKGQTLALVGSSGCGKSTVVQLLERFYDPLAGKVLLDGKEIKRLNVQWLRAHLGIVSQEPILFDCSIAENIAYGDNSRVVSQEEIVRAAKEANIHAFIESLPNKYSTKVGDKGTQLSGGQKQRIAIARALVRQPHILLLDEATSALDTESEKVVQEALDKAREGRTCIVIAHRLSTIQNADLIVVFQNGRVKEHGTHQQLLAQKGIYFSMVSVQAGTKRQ
MRP2, sequence (Q92887 whole entry): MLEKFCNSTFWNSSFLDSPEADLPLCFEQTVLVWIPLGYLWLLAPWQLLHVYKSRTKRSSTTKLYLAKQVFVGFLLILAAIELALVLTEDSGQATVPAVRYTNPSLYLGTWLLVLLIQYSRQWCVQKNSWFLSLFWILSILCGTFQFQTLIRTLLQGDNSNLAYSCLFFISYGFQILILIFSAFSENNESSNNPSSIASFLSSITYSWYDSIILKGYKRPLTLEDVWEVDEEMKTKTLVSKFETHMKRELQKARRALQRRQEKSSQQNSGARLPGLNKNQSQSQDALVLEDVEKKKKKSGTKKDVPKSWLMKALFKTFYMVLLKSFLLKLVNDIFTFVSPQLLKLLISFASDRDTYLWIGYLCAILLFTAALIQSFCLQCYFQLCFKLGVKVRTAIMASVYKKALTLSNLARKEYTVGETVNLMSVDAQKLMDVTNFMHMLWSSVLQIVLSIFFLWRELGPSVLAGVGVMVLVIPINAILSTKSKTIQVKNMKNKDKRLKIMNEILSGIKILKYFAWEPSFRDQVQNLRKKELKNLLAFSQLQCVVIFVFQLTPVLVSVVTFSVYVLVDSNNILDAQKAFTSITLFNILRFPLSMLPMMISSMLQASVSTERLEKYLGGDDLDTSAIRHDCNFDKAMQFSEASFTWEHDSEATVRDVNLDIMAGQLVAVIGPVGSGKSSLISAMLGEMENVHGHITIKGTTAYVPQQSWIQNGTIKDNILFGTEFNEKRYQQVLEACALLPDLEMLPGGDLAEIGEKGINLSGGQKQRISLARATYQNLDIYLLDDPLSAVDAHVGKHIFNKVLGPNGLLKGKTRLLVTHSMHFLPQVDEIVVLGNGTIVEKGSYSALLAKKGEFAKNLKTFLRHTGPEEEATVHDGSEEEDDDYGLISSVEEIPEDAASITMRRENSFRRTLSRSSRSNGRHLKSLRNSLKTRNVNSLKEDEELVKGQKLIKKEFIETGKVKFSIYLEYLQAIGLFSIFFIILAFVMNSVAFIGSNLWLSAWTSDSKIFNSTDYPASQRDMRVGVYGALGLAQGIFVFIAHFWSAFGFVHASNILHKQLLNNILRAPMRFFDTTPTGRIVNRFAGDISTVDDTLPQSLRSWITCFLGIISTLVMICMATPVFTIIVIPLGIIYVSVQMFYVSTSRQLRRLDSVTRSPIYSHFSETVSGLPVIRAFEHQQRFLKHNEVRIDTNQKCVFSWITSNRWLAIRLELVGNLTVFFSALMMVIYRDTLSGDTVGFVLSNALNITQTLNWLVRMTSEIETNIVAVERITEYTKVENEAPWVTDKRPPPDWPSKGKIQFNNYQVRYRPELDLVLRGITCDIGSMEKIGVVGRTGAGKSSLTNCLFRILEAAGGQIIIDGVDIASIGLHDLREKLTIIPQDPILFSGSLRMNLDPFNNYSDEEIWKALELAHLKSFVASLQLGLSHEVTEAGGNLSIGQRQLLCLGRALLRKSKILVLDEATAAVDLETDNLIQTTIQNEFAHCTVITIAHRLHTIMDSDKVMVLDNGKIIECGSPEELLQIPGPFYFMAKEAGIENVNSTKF

Compound: OCCN(CCO)c1nc(N2CCCCC2)c2nc(N(CCO)CCO)nc(N3CCCCC3)c2n1 [Dipyramidole]
- IC50 [1]: ~1 µM
- inhibition of hyaluronan transport (words) [2]: effective inhibitor
- IC50 ([3]; Homo sapiens): 15 µM

Compound: COc1ccc2c(c1)c(CC(=O)O)c(C)n2C(=O)c1ccc(Cl)cc1 [Indomethacin]
- IC50 [4]: 10 to 20 µM
- IC50 [5]: ~50 µM
- IC50 [1]: 10 µM
- IC50 ([6]; read-out: published inhibitory concentrations IC50 or Ki, MRP5): > 100 µM
- IC50 ([6]; substrate S-(2,4-dinitrophenyl)glutathione, read-out: IC50, MRP5 mediated transport of S-(2,4-dinitrophenyl)glutathione): > 100 µM
- IC50 ([7]; read-out: IC50 for MDR1): > 800 µM
- IC50 ([7]; read-out: published inhibitory concentrations IC50 or Ki, MDR1): > 800 µM
- inhibition of hyaluronan transport (words) [2]: very good inhibition
- inhibition of hyaluronan transport (words) ([2]; listed as indomethacin): inhibited hyaluronan transport
- IC50 [8]: 200 µM
- IC50 [3, 14]: 50 µM

Compound: CN(C)C(=O)CCSC(SCCC(=O)O)c1cccc(/C=C/c2ccc3ccc(Cl)cc3n2)c1 (stereo not shown) [MK-571]
- hyaluronan transport / synthase activity in membranes ([1]; membranes from human fibroblasts): less efficient
- IC50 [1]: > 100 µM
- effect on MRP5 mediated transport of cGMP ([6]; at concentrations up to 50 μM): no inhibitory effect
- published inhibitory concentrations IC50 or Ki, MRP5 [6]: no
- inhibition of hyaluronan transport (words) [2]: did not inhibit
- IC50 [8]: 150 µM
- IC50 [3, 14]: > 400 µM
- concentrations at which hyaluronan secretion/production is inhibited ([3]; human fibroblasts, inhibition only partial): above 100 μM
- inhibition of 17β-glucuronosyl-estradiol export by MRP7 ([9]; at 30 μM): 42%
- IC50 [10]: 469 µM

Compound: COc1cc2c(cc1OC)-c1c/c(=N\c3c(C)cc(C)cc3C)n(C)c(=O)n1CC2 [Trequinsin]
- IC50 [1]: 60 µM
- Ki ([6]; substrate cAMP, read-out: Ki, MRP5 mediated transport of cAMP): 0.38 µM
- Ki ([6]; substrate cGMP, read-out: Ki, MRP5 mediated transport of cGMP): 0.24 µM
- inhibition of hyaluronan transport (words) [2]: good inhibitor
- IC50 [8]: 100 µM
- IC50 [11]: ~10 µM
- IC50 [3, 14]: 6 µM
- inhibition of export of 17β-glucuronosyl-estradiol by MRP7 ([9]; at 100 μM): 44%

Compound: C/C=C/C[C@@H](C)C(=O)[C@H]1C(=O)N[C@@H](C(C)C)C(=O)N(C)CC(=O)N(C)[C@@H](CC(C)C)C(=O)N[C@@H](C(C)C)C(=O)N(C)[C@@H](CC(C)C)C(=O)N[C@@H](C)C(=O)N[C@H](C)C(=O)N(C)[C@@H](CC(C)C)C(=O)N(C)[C@@H](CC(C)C)C(=O)N(C)[C@@H](C(C)C)C(=O)N1C [Valspodar, cyclosporin D, 6-[(2S, 4R, 6E)-4-methyl-2 (methylamino)-3-oxo-6-octenoic acid]-(9CI)]
- IC50 ([2]; Homo sapiens, Fibroblast, read-out: IC50 for hyaluronan transport (export)): ~15 µM
- IC50 [8]: 45 µM
- IC50 ([3]; Homo sapiens): 15 µM

Compound: N=C(N)NC(=O)c1nc(Cl)c(N)nc1N [amyloride]
- protection from proteoglycan loss, safranin O histology [12]: only inhibitory at high concentrations

Compound: CC(C)COCC(CN(Cc1ccccc1)c1ccccc1)N1CCCC1 (stereo not shown) [bepidril]
- protection from proteoglycan loss, safranin O histology [12]: only inhibitory at high concentrations

Compound: Hyaluronan
- [3H]hyaluronan ([13]; Example 10 Table 2, buffer): 10700 cpm
- [3H]hyaluronan ([13]; Example 11 Table 1, buffer 9436): 10723 cpm
- export of endogenous labelled hyaluronan ([13]; introduced into the cytosol): not
